The record followed here is US11819532B2, “Peptide macrocycles against Acinetobacter baumannii” (Hoffmann-La Roche Inc., priority 2018, dated 2023).

The test system of one data set is A. baumannii ATCC 17978. Put plainly: 50% growth inhibitory concentration (IC50) determination, antimicrobial susceptibility testing. It is filed as cell-based. The conditions noted are these: Acinetobacter baumannii; 50% growth inhibition, A. baumannii strain ATCC17978, Iso-Sensitest medium; read-out: IC50 ATCC17978. The method, then: The in vitro antimicrobial activity of the compounds was alternatively determined according to the following procedure:
The assay used a 10-points Iso-Sensitest broth medium to measure quantitatively the in vitro activity of the compounds against A. baumannii ATCC 17978.
Stock compounds in DMSO were serially twofold diluted (e.g. range from 50 to 0.097 μM or from 10 to 0.020 μM final concentration) in 384 wells microtiter plates and inoculated with 49 μl the bacterial suspension in Iso-Sensitest medium to have a final cell concentration of ˜5×10^(5)CFU/ml in a final volume/well of 50 μl/well. Microtiter plates were incubated at 35±2° C.
Bacterial cell growth was determined with the measurement of optical density at X=600 nm each 20 minutes over a time course of 16h.
Growth inhibition was calculated during the logarithmic growth of the bacterial cells with determination of the concentration inhibiting 50% (IC50) and 90% (IC90) of the growth.
Table 1 provides the 50% growth inhibitory concentrations (IC50) in micromoles per liter of the compounds of present invention obtained against the A. baumannii strain ATCC17978.
`CN1C(=O)[C@H](CCCCN)NC(=O)[C@H](CCCN)NCc2nccnc2Sc2c(Cl)ccc(-c3ccc(C(=O)O)c(Cl)c3)c2CNC(=O)[C@@H]1Cc1c[nH]c2ccccc12` (racemic) [Example 8.01, 2-chloro-4-[rac-(11S,14S,17S)-14-(4-aminobutyl)-11-(3-aminopropyl)-25-chloro-17-(1H-indo1-3-ylmethyl)-16-methyl-12,15,18-trioxo-2-thia-4,7,10,13,16,19-hexazatricyclo[19.4.0.03,8]pentacosa-1(21),3,5,7,22,24-hexaen-22-yl]benzoic acid]: the IC50 was found to be 28 nM.
`CN1C(=O)[C@H](CCCCN)NC(=O)[C@H](CCCN)NCc2cccnc2Sc2c(Cl)ccc(-c3ccc(C(=O)O)nc3)c2CNC(=O)[C@@H]1Cc1c[nH]c2ccccc12` [Example 2.02, 5-[(11S,14S,17S)-14-(4-aminobutyl)-11-(3-aminopropyl)-25-chloro-17-(1H-indo1-3-ylmethyl)-16-methyl-12,15,18-trioxo-2-thia-4,10,13,16,19-pentazatricyclo[19.4.0.03,8]pentacosa-1(25),3,5,7,21,23-hexaen-22-yl]pyridine-2-carboxylic acid]: the IC50 amounted to 29 nM.
On to `CN1C(=O)[C@H](CCCCN)NC(=O)[C@H](CCCN)NCc2cccnc2Sc2c(Cl)ccc(-c3ccc(C(=O)O)c(O)c3)c2CNC(=O)[C@@H]1Cc1c[nH]c2ccccc12` [Example 3.00, 4-[(1 S,14S,17S)-14-(4-Aminobutyl)-1-(3-aminopropyl)-25-chloro-17-(1H-indol-3-ylmethyl)-16-methyl-12,15,18-trioxo-2-thia-4,10,13,16,19-pentazatricyclo[19.4.0.03,8]pentacosa-1(21), 3(8), 4,6,22,24-hexaen-22-yl]-2-hydroxy-benzoic Acid], for which the IC50 came to 39 nM.
For `CN1C(=O)[C@H](CCC(F)(F)CN)NC(=O)[C@H](CCCN)NCc2cccnc2Sc2c(Cl)ccc(-c3ccc(C(=O)O)cc3)c2CNC(=O)[C@@H]1Cc1c[nH]c2ccccc12` [Example 4.00, 4-[(11S,14S,17S)-14-(4-Amino-3,3-difluoro-butyl)-11-(3-aminopropyl)-25-chloro-17-(1H-indol-3-ylmethyl)-16-methyl-12,15,18-trioxo-2-thia-4,10,13,16,19-pentazatricyclo[19.4.0.03,8]pentacosa-1(21), 3,5,7,22,24-hexaen-22-yl]benzoic Acid], the 50% inhibitory concentration (IC50) worked out at 19 nM.
For the compound `CN1C(=O)[C@H](CCCCN)NC(=O)[C@H](CCC(N)=O)NCc2cccnc2Sc2c(Cl)ccc(-c3ccc(C(=O)O)cc3)c2CNC(=O)[C@@H]1Cc1c[nH]c2ccccc12` [Example 5.00, 4-[(11S,14S,17S)-14-(4-aminobutyl)-1-(3-amino-3-oxo-propyl)-25-chloro-17-(1H-indol-3-ylmethyl)-16-methyl-12,15,18-trioxo-2-thia-4,10,13,16,19-pentazatricyclo[19.4.0.03,8]pentacosa-1(21), 3,5,7,22,24-hexaen-22-yl]benzoic Acid], the IC50 came to 67 nM.
The same measure, in the same setting: for `Cc1[nH]c2ccccc2c1C[C@H]1C(=O)NCc2c(-c3ccc(C(=O)O)cc3)ccc(Cl)c2Sc2ncccc2CN[C@@H](CCCN)C(=O)N[C@@H](CCCCN)C(=O)N1C` [Example 7.00, 4-[(11S,14S,17S)-14-(4-Aminobutyl)-11-(3-aminopropyl)-25-chloro-16-methyl-17-[(2-methyl-1H-indol-3-yl)methyl]-12,15,18-trioxo-2-thia-4,10,13,16,19-pentazatricyclo[19.4.0.03,8]pentacosa-1(25), 3,5,7,21,23-hexaen-22-yl]benzoic Acid] the value was 28 nM; for `CN1C(=O)[C@H](CCCCN)NC(=O)[C@H](CCCN)NCc2nccnc2Sc2c(Cl)ccc(-c3ccc(C(=O)O)cc3)c2CNC(=O)[C@@H]1Cc1c[nH]c2ccccc12` [Example 8.00, 4-[(11S,14S,17S)-14-(4-Aminobutyl)-11-(3-aminopropyl)-25-chloro-17-(1H-indol-3-ylmethyl)-16-methyl-12,15,18-trioxo-2-thia-4,7,10,13,16,19-hexazatricyclo[19.4.0.03,8]pentacosa-1(21), 3,5,7,22,24-hexaen-22-yl]benzoic Acid], 20 nM; for `CN1C(=O)[C@H](CCCCN)NC(=O)[C@H](CCCN)NCc2cccnc2Sc2c(F)ccc(-c3ccn(/C=C/C(=O)O)c(=O)c3)c2CNC(=O)[C@@H]1Cc1c[nH]c2ccccc12` [Example 9.02, (E)-3-[4-[(11S,14S,17S)-14-(4-Aminobutyl)-11-(3-aminopropyl)-25-fluoro-17-(1H-indol-3-ylmethyl)-16-methyl-12,15,18-trioxo-2-thia-4,10,13,16,19-pentazatricyclo[19.4.0.03,8]pentacosa-1(25),3(8),4,6,21,23-hexaen-22-yl]-2-oxo-1-pyridyl]prop-2-enoic acid], 88 nM.
Regarding `CN1C(=O)[C@H](CCCN)NC(=O)[C@H](CCCN)NCc2cccnc2Sc2c(Cl)ccc(-c3ccc(C(=O)O)cc3)c2CNC(=O)[C@@H]1Cc1c[nH]c2ccccc12` [Example 12.00, 4-[(11S,14S,17S)-11,14-bis(3-Aminopropyl)-25-chloro-17-(1H-indol-3-ylmethyl)-16-methyl-12,15,18-trioxo-2-thia-4,10,13,16,19-pentazatricyclo[19.4.0.03,8]pentacosa-1(21), 3,5,7,22,24-hexaen-22-yl]benzoic Acid], the IC50 is 19 nM.
For `CN1C(=O)[C@H](CCN)NC(=O)[C@H](CCCN)NCc2cccnc2Sc2c(Cl)ccc(-c3ccc(C(=O)O)cc3)c2CNC(=O)[C@@H]1Cc1c[nH]c2ccccc12` [Example 13.00, 4-[(11S,14S,17S)-14-(2-Aminoethyl)-11-(3-aminopropyl)-25-chloro-17-(1H-indol-3-ylmethyl)-16-methyl-12,15,18-trioxo-2-thia-4,10,13,16,19-pentazatricyclo[19.4.0.03,8]pentacosa-1(25), 3(8), 4,6,21,23-hexaen-22-yl]benzoic Acid], the IC50 was determined as 20 nM.
Regarding `CN1C(=O)[C@H](CCCN)NC(=O)[C@H](CCCN)NCc2cccnc2Sc2c(F)ccc(-c3ccc(C(=O)O)cc3)c2CNC(=O)[C@@H]1Cc1c[nH]c2ccccc12` [Example 14.00, 4-[(1 S,14S,17S)-11,14-bis(3-Aminopropyl)-25-fluoro-17-(H-indol-3-ylmethyl)-16-methyl-12,15,18-trioxo-2-thia-4,10,13,16,19-pentazatricyclo[19.4.0.03,8]pentacosa-1(25), 3(8), 4,6,21,23-hexaen-22-yl]benzoic Acid], the IC50 was determined as 21 nM.
`CN1C(=O)[C@H](CCCCN)NC(=O)[C@H](CCN)NCc2cccnc2Sc2c(Cl)ccc(-c3ccc(C(=O)O)cc3)c2CNC(=O)[C@@H]1Cc1c[nH]c2ccccc12` [Example 15.00, 4-[(1 S,14S,7S)-14-(4-Aminobutyl)-11-(2-aminoethyl)-25-chloro-17-(1H-indol-3-ylmethyl)-16-methyl-12,15,18-trioxo-2-thia-4,10,13,16,19-pentazatricyclo[19.4.0.03,8]pentacosa-1(25), 3(8), 4,6,21,23-hexaen-22-yl]benzoic Acid]: the IC50 turned out to be 20 nM.
Consider `CN1C(=O)[C@H](CCCN)NC(=O)[C@H](CCN)NCc2cccnc2Sc2c(Cl)ccc(-c3ccc(C(=O)O)cc3)c2CNC(=O)[C@@H]1Cc1c[nH]c2ccccc12` [Example 16.00, 4-[(11S,14S,17S)-11-(2-Aminoethyl)-14-(3-aminopropyl)-25-chloro-17-(1H-indol-3-ylmethyl)-16-methyl-12,15,18-trioxo-2-thia-4,10,13,16,19-pentazatricyclo[19.4.0.03,8]pentacosa-1(25), 3(8), 4,6,21,23-hexaen-22-yl]benzoic Acid], for which the IC50 was 20 nM.
Regarding `CN1C(=O)[C@H](CCCN)NC(=O)[C@H](CCCN)NCc2cccnc2Sc2cccc(-c3ccc(C(=O)O)cc3)c2CNC(=O)[C@@H]1Cc1c[nH]c2ccccc12` [Example 17.00, 4-[(1 S,14S,17S)-11,14-bis(3-Aminopropyl)-17-(1H-indol-3-ylmethyl)-16-methyl-12,15,18-trioxo-2-thia-4,10,13,16,19-pentazatricyclo[19.4.0.03,8]pentacosa-1(25), 3 (8),4,6,21,23-hexaen-22-yl]benzoic Acid], the IC50 was 75 nM.

System in a further data set: not listed separately
Briefly: Plasma precipitation screening assay. More on the design: species or system rat. The conditions noted are these: Wistar (Hanbrl:Wist SPF), rat, 10 min. As for the experimental part: An aliquot (10 μL) of compound solubilized in physiological buffer or the formulation used for its parenteral administration in vivo, and of various dilutions thereof in phosphate-buffered saline (PBS), is mixed 1:1 with rat plasma. After 10 minutes incubation at room temperature the UV-absorption of the mixtures is measured and compared to absorption of blank plasma or plasma with vehicle solution. A significant (often concentration dependent) increase of absorption is indicative of precipitation.
Whole blood is obtained from WISTAR rats (Hanbrl:Wist SPF) under terminal anaesthesia after intraperitoneal injection of a pentobarbital solution (from animals euthanized for collection of tissue for other experimental purposes). Blood is collected in 1.2 mL of Heparin S-Monovette tubes (Sarstedt) for the preparation of heparin plasma.
The tubes are then centrifuged for 5 min at 5200 g at room temperature to isolate the plasma supernatant. The plasma is used in the assay within 48 h of collection (storage at 4° C.).
Test compounds are received as powder or formulated. When obtained as powder, they are solubilized in 0.9% aq. sodium chloride solution in order to get the highest indicated concentration to be tested. The solubility is visually checked and the solutions are filtered using 0.45 PVDF hydrophilic filters (Durapore®, Darmstadt, Germany), to remove possible solid impurities. pH of this initial solution might be measured in the filtered stock solutions, before proceeding to prepare a compound dilution series in PBS (1:1-dilution steps).
The assay is conducted in 384-well plates. 10 μL of rat plasma is added to 10 μL of the various compound solutions. The assay is performed in duplicate. 10 μL of vehicle (0.9% aq. sodium chloride solution, PBS) added to the plasma is used as a negative control. The absorption is measured at 362 nm.
Raw data obtained are absorbance data. The difference between absorbance of the sample and mean absorbance of vehicle is calculated. The minimal effect concentration (MEC) is defined as the lowest concentration giving an absorbance difference, OD362≥0.05.
Consider `CN1C(=O)[C@H](CCCCN)NC(=O)[C@H](CCCN)NCc2nccnc2Sc2c(Cl)ccc(-c3ccc(C(=O)O)c(Cl)c3)c2CNC(=O)[C@@H]1Cc1c[nH]c2ccccc12` (racemic) [Example 8.01, 2-chloro-4-[rac-(11S,14S,17S)-14-(4-aminobutyl)-11-(3-aminopropyl)-25-chloro-17-(1H-indo1-3-ylmethyl)-16-methyl-12,15,18-trioxo-2-thia-4,7,10,13,16,19-hexazatricyclo[19.4.0.03,8]pentacosa-1(21),3,5,7,22,24-hexaen-22-yl]benzoic acid], for which the “Plasma precipitation MEC” value turned out to be 760 µmol/L.
